The subject of data set [1] is HEKa cells. The experiment in a line: Scratch assay (cell migration), HEKa. It counts as cell-based, human. The following applies: Cu 1×10^−3 mmol/L. Here is the method:
(§1) HEKa and HDF cells were seeded in 24-well plates (2×10^4 cells/well) and allowed to form a confluent monolayer. After starvation with FBS-free medium for 24 h, the cell monolayer was scratched in a straightline using 200 μL pipette tip to mimic an incisional wound. […] At desired time intervals, cells were photographed and cell migration rate was calculated using the formula shown as below: […]

Data set [2] deals with HEKa cells. In words: Apoptosis assay (Annexin V/PI flow cytometry), HEKa. The following applies: Cu 0.5 mmol/L, 24 h. Background: Flow cytometry measures light scatter and fluorescence of single cells or particles in a stream.
Description: (§2) HEKa and HDF cells seeded in 12-well plates (4×10^4 cells/well) were incubated with PPCN, CuSO4, PCuSO4, CMOF or PCMOF (Cu: 0.5 mmol/L) for 24 h. Cells were harvested, washed twice with ice-cold PBS, stained with Alexa Fluor 488 conjugated Annexin V and PI for 15 min at room temperature in dark, and then analyzed by flow cytometry.
For data set [3], the system named is HDF cells. In words: Apoptosis assay (Annexin V/PI flow cytometry), HDF. The following applies: Cu 0.5 mmol/L, 24 h.
Description: as §2
The subject of data set [4] is HEKa cells. The experiment in a line: MTT cytotoxicity assay, HEKa. The following applies: 48 h. For orientation: Formazan colour is commonly taken as a measure of viable cells.
Description: (§3) HEKa and HDF cells seeded in 96-well plates (5×10^3 cells/well) were incubated with a series of concentrations of PPCN, CuSO4, PCuSO4, CMOF or PCMOF for 48 h. Then, MTT solution was added to each well to a concentration of 0.5 mg/mL and incubated for an additional 4 h. After that, the medium was removed and 100 μL of dimethyl sulfoxide was added to dissolve crystals formed by living cells. Absorbance at 570 nm was measured using a microplate reader. Cell viability was expressed as a percentage of the absorbance to that of the control experiment without treatment.
Data set [5] can be described thus: ABTS free radical scavenging assay. The class given is biochemical. The following applies: within 48 hrs, 37° C. Here is the method: The ability of PCMOF to scavenge the free radical cation, 2,2′-azino-bis(3-ethylbenzthiazoline-6-sulfonic acid) (ABTS) was assessed. […] A stock solution of 7 mM ABTS and 2.45 mM sodium persulfate in MQ water was prepared and left overnight in the dark at room temperature, after which the solution was sequentially filtered with 0.45 μm filter. […] At each time point, ABTS solution was sampled, diluted with MQ water 1:8 and the absorbance measured at 734 nm. All measurements were performed in triplicate. The antiradical activity was measured as % inhibition of free radicals by measuring the decrease in absorbance compared to PBS solutions at different time points.

For data set [6], the system named is HDF cells. In words: Scratch assay (cell migration), HDF. The class given is cell-based, human. The following applies: 54 hrs, Cu 1×10^−3 mmol/L. Here is the method:
as §1

Data set [7] has as its system HDF cells. The experiment in a line: MTT cytotoxicity assay, HDF. The following applies: 48 h.
Description: as §3
The test system of data set [8] is HEKa cells.
Description: as §3
Data set [9] relates to HDF cells.
Description: as §3

Where two headings read alike, the source gives them in different places.

For the molecule `O=S(=O)([O-])[O-].[Cu+2]` [CuSO4, Copper sulfate], in the data set on HEKa cells [1] (8 h), the “effect on wound closure versus blank” value is reported as “significant increase”. Moreover, the wound closure rate in the data set with HEKa cells [1] (30 hrs) worked out at 56.73%; in the data set with HDF cells [6], 34.15%. For the same molecule, the cell apoptosis in the data set on HEKa cells [2] was 78.79%; in the data set on HDF cells [3], 97.84%. Besides, the “cytotoxicity (MTT)” value in the data set on HEKa cells [4] and with HDF cells [7] was “increased with increasing concentrations” in each case. The ABTS radicals scavenged entry in data set [5] is given as “didn't present a free radical scavenging effect”.

Turning to “poly(polyethyleneglycol citrate-co-N-isopropylacrylamide) [PPCN]”, the “cytotoxicity (MTT)” value in the data set with HEKa cells [8] and in the data set with HDF cells [9] was “not toxic” in each case.
